{
  "source": "the METLIN SMRT retention time set (Domingo-Almenara et al. 2019)",
  "data": [
    {"assay": "gradient 5% acetonitrile 3 min, to 50% in 2 min, to 85% in 15 min, held 3 min, 100 µL/min", "conditions": "column: Zorbax Extend-C18 2.1 x 50 mm; eluents: water / acetonitrile, 0.1% formic acid", "in_short": "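Mixtures of ~100 pure standards were chromatographed on a Zorbax Extend-C18 column (2.1 × 50 mm, 1.8 μm) at 100 μL/min using water and acetonitrile, each with 0.1% formic acid. Detection used a quadrupole time-of-flight mass spectrometer in positive and negative ionization mode, and data collection spanned 3 months. Retention time was obtained from adduct peaks picked computationally and each checked manually.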", "units": {"RP-LC retention time": "s"}, "values": [
      {"molecule": "O=C(NC1CC1)c1ccccc1OCC1CCCN(Cc2ccc3c(c2)CCO3)C1", "note": "(stereo not given)", "RP-LC retention time": 580},
      {"molecule": "CCNC(=O)N1CCc2c([nH]c3ccc(C)cc23)C12C(=O)N(C)c1ccccc12", "note": "(stereo not given)", "RP-LC retention time": 798},
      {"molecule": "CC(C)N1CCN(c2ncccc2-c2nnc(-c3ccc(Cl)cc3)o2)CC1", "RP-LC retention time": 670},
      {"molecule": "CCCN(C(=O)c1ccccc1OC)c1nc(-c2ccccc2)cs1", "RP-LC retention time": 1310},
      {"molecule": "Cc1ccc(NC(=O)Cn2c(N3CCOCC3)nc(C)cc2=O)cc1", "RP-LC retention time": 680},
      {"molecule": "CN(CCc1noc(-c2ccccc2)n1)C(=O)Nc1ccccc1Cl", "RP-LC retention time": 943},
      {"molecule": "CNC(=O)c1sc(Nc2ccc(Cl)cn2)nc1C", "RP-LC retention time": 687},
      {"molecule": "Clc1ccc(Cl)c(-c2ccc(CNCc3cccnc3)o2)c1", "RP-LC retention time": 664},
      {"molecule": "CCC(CO)NCc1ccc(-c2cccc(Cl)c2C)o1", "note": "(stereo not given)", "RP-LC retention time": 683},
      {"molecule": "O=C(Nc1nc(-c2ccccc2)c(-c2ccccc2)o1)NC1CCCCC1", "RP-LC retention time": 1320},
      {"molecule": "CCCc1nc(-c2ccccc2)oc1CC(=O)Nc1ccc(Cl)cc1C", "RP-LC retention time": 1090},
      {"molecule": "COCC1(O)CCOC2(CCN(Cc3cccc(Cl)c3)CC2)C1", "note": "(stereo not given)", "RP-LC retention time": 612},
      {"molecule": "CCn1cc(CCN2CCN(S(=O)(=O)c3ccc(C)c(F)c3)CC2)c2cccnc21", "RP-LC retention time": 677},
      {"molecule": "COc1ccc(NC(=O)N2CC(C)Oc3ccc(C)cc32)cc1", "note": "(stereo not given)", "RP-LC retention time": 945},
      {"molecule": "O=C(c1ccc(S(=O)(=O)c2ccc(Cl)cc2)s1)N1CCN(c2ccccn2)CC1", "RP-LC retention time": 702},
      {"molecule": "CC(C)n1cnc(S(=O)(=O)N2CCCC(C(=O)N3CCN(c4ncccn4)CC3)C2)c1", "note": "(stereo not given)", "RP-LC retention time": 682},
      {"molecule": "CC(C)c1cccc(C(C)C)c1N1C(=O)c2ccc(O)cc2C1=O", "RP-LC retention time": 1130},
      {"molecule": "CCCCOc1ccc(NC(=O)Nc2ccc(N3CCCS3(=O)=O)cc2)cc1", "RP-LC retention time": 851},
      {"molecule": "Cn1ccc2cc(S(=O)(=O)N3CCCC(C(=O)NCCC4=CCCCC4)C3)ccc21", "note": "(stereo not given)", "RP-LC retention time": 1040},
      {"molecule": "COC(=O)c1ccc(-c2nc3cnccn3c2Nc2cc(OC)ccc2OC)cc1", "RP-LC retention time": 870},
      {"molecule": "CCc1nc2cc(-c3noc(-c4ccc(OC)cc4OC)n3)ccc2o1", "RP-LC retention time": 1080},
      {"molecule": "CSc1ccc(Cl)c(-c2nc(-c3ccc4oc(C)nc4c3)no2)c1", "RP-LC retention time": 1260},
      {"molecule": "CCC(C)NC(=O)N1CCN(Cc2nc3cc(C(C)(C)C)ccc3o2)CC1", "note": "(stereo not given)", "RP-LC retention time": 758},
      {"molecule": "COC[C@@H]1CN(Cc2cn(C)c3ccccc23)C[C@H]1c1nc(C)no1", "RP-LC retention time": 656},
      {"molecule": "O=S(=O)(c1ccc(Cl)c(-c2nnc(-c3ccccc3)o2)c1)N1CCCC1", "RP-LC retention time": 1040},
      {"molecule": "CC(C)NC(=O)Cn1nc2c3cc(-c4ccc(Cl)cc4)nn3ccn2c1=O", "RP-LC retention time": 823},
      {"molecule": "O=C(Cn1cnc2nc3c(cc2c1=O)CCCC3)Nc1ccc(Cl)cc1F", "RP-LC retention time": 778},
      {"molecule": "CNCc1ccc(-c2cccc(C(F)(F)F)c2)o1", "RP-LC retention time": 673},
      {"molecule": "Cc1cccc(NC(=O)NCC(c2cccnc2)c2c[nH]c3ccccc23)c1", "note": "(stereo not given)", "RP-LC retention time": 673},
      {"molecule": "COC(=O)c1cc2c(=O)n(-c3cccc(Cl)c3)ccc2nc1C", "RP-LC retention time": 878},
      {"molecule": "O=C(Nc1ccc2c(c1)OCCO2)N1CCC(Cc2nc(-c3cccnc3)n[nH]2)C1", "note": "(stereo not given)", "RP-LC retention time": 592},
      {"molecule": "CC(NC(=O)c1ccco1)c1nc(-c2ccc(N3CCCCC3)cc2)no1", "note": "(stereo not given)", "RP-LC retention time": 859},
      {"molecule": "CCc1ccc(CNC(=O)C2CCN(C(=O)c3ncn4c3COC(c3ccc(F)cc3)C4)CC2)cc1", "note": "(stereo not given)", "RP-LC retention time": 846},
      {"molecule": "O=C(NCC1CCOCC1)c1cnc(Nc2ccc(Cl)cc2Cl)nc1C(F)(F)F", "RP-LC retention time": 997},
      {"molecule": "Nc1c(Cl)ncnc1NCCO", "RP-LC retention time": 557},
      {"molecule": "CCOc1ccc(CNC(=O)Cc2csc3nc(-c4ccc(C)c(C)c4)cn23)cc1OC", "RP-LC retention time": 810},
      {"molecule": "CC(=O)NCCc1csc(C2CCN(C(=O)C3CCCC3)CC2)n1", "RP-LC retention time": 676},
      {"molecule": "COc1cc(OC)c(NC(=O)c2ncoc2-c2ccc(OC)c(OC)c2)cc1Cl", "RP-LC retention time": 1140},
      {"molecule": "CCn1nc(CNC(=O)c2ccc(F)c(F)c2)c2ccccc21", "RP-LC retention time": 896},
      {"molecule": "O=C(Cn1nc2nc(N3CCCC3)ccn2c1=O)N1CCN(c2ccc(F)cc2)CC1", "RP-LC retention time": 661},
      {"molecule": "Cc1cccc(S(=O)(=O)N2CCc3nc(-c4ccc(Cl)cc4)ncc3C2)c1", "RP-LC retention time": 1210},
      {"molecule": "Cc1ccc(OCC(O)Cn2c(C3CC3)nc3ccccc32)cc1C", "note": "(stereo not given)", "RP-LC retention time": 724},
      {"molecule": "COCCCNC(=O)C1CCCN(c2nnc3ccccn23)C1", "note": "(stereo not given)", "RP-LC retention time": 529},
      {"molecule": "Cc1cc(N2CCN(C(=O)Nc3cccc(Cl)c3)CC2)nc(N2CCOCC2)n1", "RP-LC retention time": 672},
      {"molecule": "COc1ccc(C(=O)Nc2nc(-c3ccc4c(c3)N(C)C(=O)CO4)c(C)s2)cc1", "RP-LC retention time": 967}
    ]}
  ]
}
